The text below walks through data of the supplement of paper PMC10307832.

What all share (experiment): relative viability (nuclei count vs DMSO), 5 days (fraction); higher = more cells survive
Compound in the assay “Sulindac + OSI-027”: CC1=C(CC(=O)O)c2cc(F)ccc2/C1=C\c1ccc([S+](C)[O-])cc1 [Sulindac] + COc1cccc2cc(-c3nc([C@H]4CC[C@H](C(=O)O)CC4)n4ncnc(N)c34)[nH]c12 [OSI-027] (partner 0.5 µM)
Put shortly:
(§1)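 Lung cancer cell lines, seeded in 1536-well plates, were treated the following day by pin tool with a single drug or with five library-drug doses (not always all listed) in √10 steps on top of a fixed anchor-drug dose. Cells were fixed and nuclei stained in one step after 5 days, and nuclei were counted. Relative viability is the nuclei count for treated wells divided by that for vehicle wells, reported as medians of duplicate plates.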

Compound in the assay “Sulindac + Decitabine”: CC1=C(CC(=O)O)c2cc(F)ccc2/C1=C\c1ccc([S+](C)[O-])cc1 [Sulindac] + Nc1ncn([C@H]2C[C@H](O)[C@@H](CO)O2)c(=O)n1 [Decitabine] (partner 2 µM)
Put shortly:
as §1

Compound in assay [1]: CN[C@@H]1C[C@H]2O[C@@](C)([C@@H]1OC)n1c3ccccc3c3c4c(c5c6ccccc6n2c5c31)C(=O)NC4 [Staurosporine] + Nc1ncn([C@H]2C[C@H](O)[C@@H](CO)O2)c(=O)n1 [Decitabine] (partner 2 µM)
In short, it runs like this:
as §1

Compound in assay [2]: O=c1[nH]cc(F)c(=O)[nH]1 [5-Fluorouracil] + COc1cc2c(Oc3ccc(NC(=O)C4(C(=O)Nc5ccc(F)cc5)CC4)cc3F)ccnc2cc1OCCCN1CCOCC1 [Foretinib] (partner 0.25 µM)
Put shortly: as §1

For the cell line NCI-H1755, the relative viability turned out to be 0.776 with Sulindac + OSI-027 (first compound 0.08 µM); 0.64 in the assay with Sulindac + OSI-027 (first compound 0.253 µM); 0.661 in the assay with Sulindac + OSI-027 (first compound 0.8 µM); 0.733 with Sulindac + OSI-027 (first compound 2.53 µM); 0.763 with Sulindac + OSI-027 (first compound 8 µM); 0.798 with Sulindac + Decitabine (first compound 0.08 µM). Also, the relative viability was 0.634 in the assay with Sulindac + Decitabine (first compound 0.253 µM); 0.705 in the assay with Sulindac + Decitabine (first compound 0.8 µM); 0.785 with Sulindac + Decitabine (first compound 2.53 µM); 0.833 with Sulindac + Decitabine (first compound 8 µM); 0.757 in assay [1] (first compound 0.005 µM); 0.634 in assay [1] (first compound 0.01581 µM). Moreover, the relative viability in assay [1] (first compound 0.05 µM) is 0.483; in assay [1] (first compound 0.1581 µM), 0.336; in assay [1] (first compound 0.5 µM), 0.133; in assay [2] (first compound 0.02 µM) it was 0.909; in assay [2] (first compound 0.2 µM) it was 0.854; in assay [2] (first compound 0.6325 µM), 0.365. Besides, in assay [2] (first compound 2 µM), the relative viability is 0.319.

For the cell line NCI-H1793, the relative viability in the assay with Sulindac + OSI-027 (first compound 0.08 µM) was found to be 0.218; with Sulindac + OSI-027 (first compound 0.253 µM), 0.359; in the assay with Sulindac + OSI-027 (first compound 0.8 µM), 0.236; with Sulindac + OSI-027 (first compound 2.53 µM) it was 0.243; with Sulindac + OSI-027 (first compound 8 µM) it was 0.258; in the assay with Sulindac + Decitabine (first compound 0.08 µM), 0.406. For the same cell line, the relative viability worked out at 0.521 in the assay with Sulindac + Decitabine (first compound 0.253 µM); 0.486 with Sulindac + Decitabine (first compound 2.53 µM); 0.588 with Sulindac + Decitabine (first compound 8 µM); 0.341 in assay [1] (first compound 0.005 µM); 0.311 in assay [1] (first compound 0.05 µM); 0.125 in assay [1] (first compound 0.1581 µM). The relative viability in assay [1] (first compound 0.5 µM) is 0.191; in assay [2] (first compound 0.02 µM), 0.683; in assay [2] (first compound 0.2 µM), 0.674; in assay [2] (first compound 0.6325 µM) it was 0.57; in assay [2] (first compound 2 µM), 0.406.

Consider NCI-H1915, for which the relative viability worked out at 0.764 with Sulindac + OSI-027 (first compound 0.08 µM); 0.688 with Sulindac + OSI-027 (first compound 0.253 µM); 0.678 with Sulindac + OSI-027 (first compound 2.53 µM); 0.625 in the assay with Sulindac + OSI-027 (first compound 8 µM); 0.229 with Sulindac + Decitabine (first compound 0.08 µM); 0.268 with Sulindac + Decitabine (first compound 0.253 µM). Moreover, the relative viability was 0.266 with Sulindac + Decitabine (first compound 0.8 µM); 0.261 in the assay with Sulindac + Decitabine (first compound 2.53 µM); 0.27 in the assay with Sulindac + Decitabine (first compound 8 µM); 0.268 in assay [1] (first compound 0.005 µM); 0.227 in assay [1] (first compound 0.01581 µM); 0.186 in assay [1] (first compound 0.05 µM). The relative viability in assay [1] (first compound 0.1581 µM) stood at 0.126; in assay [1] (first compound 0.5 µM) it was 0.0975; in assay [2] (first compound 0.02 µM) it was 1.01; in assay [2] (first compound 0.2 µM) it was 1.09; in assay [2] (first compound 0.6325 µM) it was 1.06; in assay [2] (first compound 2 µM), 0.81.

For the cell line NCI-H1944, the relative viability in the assay with Sulindac + OSI-027 (first compound 0.08 µM) was found to be 0.424; in the assay with Sulindac + OSI-027 (first compound 0.253 µM), 0.43; in the assay with Sulindac + OSI-027 (first compound 0.8 µM) it was 0.353; with Sulindac + OSI-027 (first compound 2.53 µM), 0.421; with Sulindac + OSI-027 (first compound 8 µM) it was 0.412; in the assay with Sulindac + Decitabine (first compound 0.08 µM), 0.489. Further, the relative viability in the assay with Sulindac + Decitabine (first compound 0.253 µM) came out at 0.44; with Sulindac + Decitabine (first compound 0.8 µM), 0.412; with Sulindac + Decitabine (first compound 2.53 µM) it was 0.426; with Sulindac + Decitabine (first compound 8 µM), 0.449; in assay [1] (first compound 0.005 µM), 0.41; in assay [1] (first compound 0.01581 µM) it was 0.354. Also, the relative viability in assay [1] (first compound 0.05 µM) came out at 0.401; in assay [1] (first compound 0.1581 µM) it was 0.326; in assay [1] (first compound 0.5 µM), 0.278; in assay [2] (first compound 0.02 µM), 0.834; in assay [2] (first compound 0.2 µM) it was 0.702; in assay [2] (first compound 0.6325 µM), 0.314. In addition, the relative viability in assay [2] (first compound 2 µM) was 0.184.

With NCI-H1975, the relative viability is 0.93 with Sulindac + OSI-027 (first compound 0.08 µM); 0.762 with Sulindac + OSI-027 (first compound 0.253 µM); 0.489 with Sulindac + OSI-027 (first compound 0.8 µM); 0.759 with Sulindac + OSI-027 (first compound 2.53 µM); 0.835 with Sulindac + OSI-027 (first compound 8 µM); 0.594 with Sulindac + Decitabine (first compound 0.08 µM). In addition, the relative viability with Sulindac + Decitabine (first compound 0.253 µM) came out at 0.413; with Sulindac + Decitabine (first compound 0.8 µM), 0.352; in the assay with Sulindac + Decitabine (first compound 2.53 µM), 0.394; with Sulindac + Decitabine (first compound 8 µM), 0.36; in assay [1] (first compound 0.005 µM), 0.255; in assay [1] (first compound 0.01581 µM), 0.206. Besides, the relative viability was 0.184 in assay [1] (first compound 0.05 µM); 0.15 in assay [1] (first compound 0.1581 µM); 0.131 in assay [1] (first compound 0.5 µM); 0.999 in assay [2] (first compound 0.02 µM); 0.898 in assay [2] (first compound 0.2 µM); 0.469 in assay [2] (first compound 0.6325 µM). Also, the relative viability in assay [2] (first compound 2 µM) was determined as 0.259.

With NCI-H1993, the relative viability worked out at 0.513 with Sulindac + OSI-027 (first compound 0.08 µM); 0.554 in the assay with Sulindac + OSI-027 (first compound 0.253 µM); 0.495 with Sulindac + OSI-027 (first compound 0.8 µM); 0.542 in the assay with Sulindac + OSI-027 (first compound 2.53 µM); 0.581 with Sulindac + OSI-027 (first compound 8 µM); 0.558 with Sulindac + Decitabine (first compound 0.08 µM). Further, the relative viability in the assay with Sulindac + Decitabine (first compound 0.253 µM) was 0.298; with Sulindac + Decitabine (first compound 0.8 µM), 0.454; with Sulindac + Decitabine (first compound 2.53 µM), 0.61; with Sulindac + Decitabine (first compound 8 µM) it was 0.627; in assay [1] (first compound 0.005 µM), 0.665; in assay [1] (first compound 0.01581 µM), 0.604. For the same cell line, the relative viability in assay [1] (first compound 0.05 µM) worked out at 0.573; in assay [1] (first compound 0.1581 µM), 0.44; in assay [1] (first compound 0.5 µM) it was 0.354; in assay [2] (first compound 0.02 µM), 0.741; in assay [2] (first compound 0.2 µM), 0.728; in assay [2] (first compound 0.6325 µM), 0.706. Besides, in assay [2] (first compound 2 µM), the relative viability stood at 0.667.

On to NCI-H2009, for which the relative viability amounted to 0.732 with Sulindac + OSI-027 (first compound 0.08 µM); 0.77 with Sulindac + OSI-027 (first compound 0.253 µM); 0.582 in the assay with Sulindac + OSI-027 (first compound 0.8 µM); 0.626 with Sulindac + OSI-027 (first compound 2.53 µM); 0.731 with Sulindac + OSI-027 (first compound 8 µM); 0.455 with Sulindac + Decitabine (first compound 0.08 µM). Further, the relative viability in the assay with Sulindac + Decitabine (first compound 0.253 µM) stood at 0.397; with Sulindac + Decitabine (first compound 0.8 µM) it was 0.371; in the assay with Sulindac + Decitabine (first compound 2.53 µM), 0.362; in the assay with Sulindac + Decitabine (first compound 8 µM), 0.359; in assay [1] (first compound 0.005 µM), 0.331; in assay [1] (first compound 0.01581 µM), 0.272. Further, the relative viability in assay [1] (first compound 0.05 µM) was found to be 0.196; in assay [1] (first compound 0.1581 µM), 0.172; in assay [1] (first compound 0.5 µM), 0.0871; in assay [2] (first compound 0.02 µM), 1.31; in assay [2] (first compound 0.2 µM) it was 1.27; in assay [2] (first compound 0.6325 µM), 1.12. Further, the relative viability in assay [2] (first compound 2 µM) is 0.669.
